Test results as given in the Bradley open melting point set (2014).
“And” between values parts separate entries of the source, which are not always exact repeats. Equal values may be shown once.

Structure (SMILES)	melting point
N#CCCCCCCCCCCC#N [1,10-decanedicarbonitrile]	18 °C
OCCCCCCCCCCO [1,10-decanediol]	73 °C
c1cnc2c(c1)ccc1cccnc12 [1,10-phenanthroline, anhydrous]	118 °C
CC(=O)c1ccco1 [1-(2-Furyl)ethanone]	29.5 °C
COc1ccccc1N1CCNCC1 [1-(2-methoxyphenyl)piperazine]	37 °C
O=C(CC(=O)C(F)(F)F)c1cccs1 [1-(2-thenoyl)-3,3,3-trifluoroacetone]	43 °C
Oc1ccc2ccccc2c1N=Nc1nccs1 [1-(2-thiazolylazo)-2-naphthol]	139 °C
CCC(=O)c1ccc(Cl)cc1 [1-(4-Chlorophenyl)propan-1-one]	35.5 °C
CC(=O)c1ccc(I)cc1 [1-(4-Iodophenyl)ethanone]	84.8 °C and 85.3 °C
O=[N+]([O-])c1ccc(N2CCCCC2)cc1 [1-(4-nitrophenyl)piperidine]	104 °C
O=[N+]([O-])c1ccc(/N=N/c2c(O)ccc3ccccc23)cc1 [1-(4-nitrophenylazo)-2-naphthol]	250 °C
N#CCC(=O)N1CCCC1 [1-(cyanoacetyl)pyrrolidine]	73 °C
O=C(O)C1(C(F)(F)F)CCCCC1 [1-(trifluoromethyl)cyclohexanecarboxylic acid]	70 °C
Nc1c(Br)cc(Br)c2c1C(=O)c1ccccc1C2=O [1-Amino-2,4-dibromo-9,10-anthraquinone]	226 °C
Cc1ccc(Br)cc1 [1-Bromo-4-methylbenzene]	28.5 °C
O=[N+]([O-])c1ccc(Cl)c([N+](=O)[O-])c1 [1-Chloro-2,4-dinitrobenzene]	53 °C
Cc1cccc(Cl)c1 [1-Chloro-3-methylbenzene]	-48 °C
O=[N+]([O-])c1ccc(Cl)cc1 [1-Chloro-4-nitrobenzene]	83.6 °C
CCCCCl [1-Chlorobutane]	-123 °C
CCCCCCCl [1-Chlorohexane]	-94 °C
O=[N+]([O-])c1ccc(F)c([N+](=O)[O-])c1 [1-Fluoro-2,4-dinitrobenzene]	27 °C
COc1cc(Cl)c(Cl)c(Cl)c1Cl [1-Methoxy-2,3,4,5-tetrachlorobenzene]	88 °C
COc1ccc([N+](=O)[O-])cc1 [1-Methoxy-4-nitrobenzene]	48 °C

Structure (SMILES)	melting point
O=C(O)c1cccc2ccccc12 [1-Naphthoic acid]	162 °C
O=[N+]([O-])c1cccc2ccccc12 [1-Nitronaphthalene]	61.5 °C
FC(F)(F)c1cc(-n2cccc2)cc(C(F)(F)F)c1 [1-[3,5-bis(trifluoromethyl)phenyl]pyrrole]	42 °C
Cc1ccc(N=Nc2c(O)ccc3ccccc23)c([N+](=O)[O-])c1 [1-[(4-Methyl-2-nitrophenyl)diazenyl]-2-naphthol]	271 °C
OCCC12CC3CC(CC(C3)C1)C2 [1-adamantaneethanol]	74 °C
NC12CC3CC(CC(C3)C1)C2 [1-adamantylamine]	180 °C
CCCCN [1-aminobutane]	-49 °C
CCCCCCCCN [1-aminooctane]	0 °C
Clc1cccc(Cl)c1Br [1-bromo-2,6-dichlorobenzene]	66 °C
Fc1cc(I)ccc1Br [1-bromo-2-fluoro-4-iodobenzene]	36 °C
Clc1cc(Cl)cc(Br)c1 [1-bromo-3,5-dichlorobenzene]	75 °C
Brc1cccc(I)c1 [1-bromo-3-iodobenzene]	-9 °C
Fc1ccc(Br)cc1 [1-bromo-4-fluorobenzene]	-16 °C
O=[N+]([O-])c1ccc(Br)cc1 [1-bromo-4-nitrobenzene]	126 °C
CCCCBr [1-bromobutane]	-112 °C
CCCCCCCBr [1-bromoheptane]	-56 °C
CCCCCCBr [1-bromohexane]	-85 °C
O=[N+]([O-])c1ccc(Cl)c([N+](=O)[O-])c1 [1-chloro-2,4-dinitrobenzene]	53 °C
Fc1ccc(Cl)cc1 [1-chloro-4-fluorobenzene]	-22 °C
O=[N+]([O-])c1ccc(Cl)cc1 [1-chloro-4-nitrobenzene] [listing 1 of 2 here]	84 °C
O=[N+]([O-])c1ccc(Cl)cc1 [1-chloro-4-nitrobenzene] [listing 2 of 2 here]	84 °C
O=C1c2ccccc2C(=O)c2c(Cl)cccc21 [1-chloroanthraquinone]	160 °C
CCCCCl [1-chlorobutane]	-123 °C

Structure (SMILES)	melting point
CCCCCCCCCCCl [1-chlorodecane]	-31 °C
CCCCCCCCCCCCCCCCCl [1-chlorohexadecane]	9 °C
CCCCCCCl [1-chlorohexane]	-94 °C
O=C(O)C1=CCCCC1 [1-cyclohexene-1-carboxylic acid]	32 °C
O=c1ncnc2n(C3CCCCC3)[nH]cc1-2 [1-cyclohexyl-1,2-dihydro-4H-pyrazolo[3,4-d]pyrimidin-4-one]	252 °C
CCCCCCCCCCS(=O)(=O)Cl [1-decanesulfonyl chloride]	32 °C
CCCCCCCCCCO [1-decanol]	7 °C
CCCCCCCCCCCCS(=O)(=O)Cl [1-dodecanesulfonyl chloride]	41 °C
CCCCCCCCCCCCS [1-dodecanethiol]	-7 °C
C=CCCCCCCCCCC [1-dodecene]	-35 °C
C#CC1(O)CCCCC1 [1-ethynylcyclohexanol]	32 °C
O=[N+]([O-])c1ccc(F)c([N+](=O)[O-])c1 [1-fluoro-2,4-dinitrobenzene]	27 °C
CCCCCCCCCCCCCCCCCO [1-heptadecanol]	58 °C
C=CCCCCCCCCCCCCCC [1-hexadecene]	4 °C
CCCCCCS [1-hexanethiol]	-80 °C
C=CCCCC [1-hexene] [listing 1 of 2 here]	-140 °C
C=CCCCC [1-hexene] [listing 2 of 2 here]	-140 °C
Cc1c(C#N)c2ccccc2n1O [1-hydroxy-2-methyl-1H-indole-3-carbonitrile]	159 °C
CC1(C)C(=O)NC(=O)N1CO [1-hydroxymethyl-5,5-dimethylhydantoin]	105 °C
CCCCCCI [1-iodohexane]	-75 °C
O=C=Nc1cccc2ccccc12 [1-naphthyl isocyanate]	4 °C
c1ccc(N2CCNCC2)cc1 [1-phenylpiperazine]	18 °C
CCOC(O)C(Cl)(Cl)Cl (stereo not drawn) [2,2,2-trichloro-1-ethoxyethanol]	50 °C

Further lines, results first:

melting point	Structure (SMILES)
51 °C	O=[N+]([O-])c1ccccc1I [1-iodo-2-nitrobenzene]
37 °C	O=[N+]([O-])c1cccc(I)c1 [1-iodo-3-nitrobenzene]
88 °C	COc1cc(Cl)c(Cl)c(Cl)c1Cl [1-methoxy-2,3,4,5-tetrachlorobenzene]
65 °C	Cn1nnc2ccccc21 [1-methyl-1h-benzotriazole]
-62 °C	CCc1ccc(C)cc1 [1-methyl-4-ethylbenzene]
26 °C	CC1(O)CCCCC1 [1-methylcyclohexanol]
-120 °C	CC1=CCCCC1 [1-methylcyclohexene] [listing 1 of 2 here]
-120 °C	CC1=CCCCC1 [1-methylcyclohexene] [listing 2 of 2 here]
85 °C	Cc1cccc2c1Cc1ccccc1-2 [1-methylfluorene] [listing 1 of 2 here]
85 °C	Cc1cccc2c1Cc1ccccc1-2 [1-methylfluorene] [listing 2 of 2 here]
-22 °C	Cc1cccc2ccccc12 [1-methylnaphthalene]
81 °C	CCCCCCn1c(=O)c2c(ncn2C)n(C)c1=O [1-n-hexyltheobromine]
96 °C	Oc1cccc2ccccc12 [1-naphthol]
18 °C	O=C(Cl)c1cccc2ccccc12 [1-naphthoyl chloride]
139 °C	O=[N+]([O-])c1ccc(/C=C/c2ccccc2[N+](=O)[O-])cc1 [1-nitro-2-[(E)-2-(4-nitrophenyl)ethenyl]benzene]
-81 °C	C=CCCCCCCC [1-nonene]
-15 °C	CCCCCCCCO [1-octanol]
-102 °C	C=CCCCCCC [1-octene]
-79 °C	C#CCCCCCC [1-octyne]
46 °C	CCCCCCCCCCCCCCCO [1-pentadecanol]

melting point	Structure (SMILES)
10 °C	C#CCCCCCCCCCCCCC [1-pentadecyne]
-76 °C	CCCCCS [1-pentanethiol]
77 °C	N#CC1(c2ccccc2)C=Cc2ccccc21 (stereo not drawn) [1-phenyl-1H-indene-1-carbonitrile]
40 °C	CCCCCCCCCCCCCCO [1-tetradecanol]
-23 °C	C=CCCCCCCCCCCC [1-tridecene]
-49 °C	C=CCCCCCCCCC [1-undecene]
203 °C	O=C(O)Cn1cncn1 [1h-1,2,4-triazole-1-acetic acid]
86 °C	CC(=O)c1c(C)c(C)c(C)c(C)c1C [2',3',4',5',6'-pentamethylacetophenone]
100 °C	CCC(=O)c1ccc(O)cc1O [2',4'-dihydroxypropiophenone]
206 °C	CC(=O)c1cc(O)ccc1O [2',5'-dihydroxyacetophenone]
98 °C	CCC(=O)c1cc(O)ccc1O [2',5'-dihydroxypropiophenone]
19 °C	COc1ccc(OC)c(C(C)=O)c1 [2',5'-dimethoxyacetophenone]
106 °C	COc1cc(N)c(C(C)=O)cc1OC [2'-amino-4',5'-dimethoxyacetophenone]
111 °C	CC(=O)Nc1ccccc1C [2'-methylacetanilide]
27 °C	CC(=O)c1ccccc1[N+](=O)[O-] [2'-nitroacetophenone]
50 °C	Cc1ccc(C)c(-c2cc(C)ccc2C)c1 [2,2',5,5'-tetramethylbiphenyl]
154 °C	O=[N+]([O-])c1cc([N+](=O)[O-])c(C2CO2)cc1C1CO1 (stereo not drawn) [2,2'-(4,6-dinitrobenzene-1,3-diyl)dioxirane]
165 °C	ON=C(/C(=N\O)c1ccco1)c1ccco1 [2,2'-furil dioxime]
138 °C	O=C(c1ccco1)C(O)c1ccco1 (stereo not drawn) [2,2'-furoin]
